Test results as given in patent publication US20200375987A1, “METALLO-BETA-LACTAMASE INHIBITORS AND METHODS OF USE THEREOF” (priority 2018, published 2020).

Columns and labels:
NDM-1 = NDM-1 (Klebsiella pneumoniae, UniProt C7C422); assay: Enzyme activity: determination of IC50, fluorescence assay with CCF2-FA substrate (NDM-1); assay type: biochemical; conditions: 1 pM enzyme, 1.25 μM CCF2-FA, 2 hours at 25° C.; read-out: NDM1 IC50
Description: (§1) The Class B enzyme activities were measured in the presence of the test inhibitor in a fluorescence assay against a commercially available substrate consisting of a cephalosporin core linking 7-hydroxycoumarin to fluorescein (CCF2-FA). The enzyme (NDM-1, IMP-1 or VIM-1) and the substrate were diluted in 100 mM KH2PO4 buffer (pH 7) containing 0.005% Tween-20 and 10 μM ZnSO4. In the assay, the final concentration of enzyme was 1 pM, 2 pM and 30 pM for NDM-1, IMP-1 and VIM-1, respectively, and the final concentration of CCF2-FA was 1.25 μM. The test inhibitor was dissolved in dimethylsulfoxide and diluted 1:50 in the assay, resulting in a final concentration range of 20 μM to 0.00063 μM. In a 384-well microplate, the test inhibitor was incubated with the metallo-β-lactamase enzyme and the substrate for 2 hours at 25° C. Fluorescence at 460 nm following excitation at 405 nm was measured. The IC50 value was determined from semi-logarithmic plots of enzyme inhibition versus inhibitor concentration, with a curve generated using a 4-parameter fit.

[1] = test system: P. aeruginosa MB9798 (efflux WT, IMP-1); assay: Efflux: concentration of MBL inhibitor restoring susceptibility to imipenem (MITC95), efflux+ strain; assay type: cell-based, Pseudomonas aeruginosa; conditions: imipenem at 2 μg/mL in the presence of a class A, C, D serine β-lactamase inhibitor closely related to relebactam
Source text: (§2) In order to assess the contribution of efflux to lack of whole cell inhibition of metallo-beta-lactamase inhibitors of formula I, tool strains were constructed. The strain background is Pseudomonas aeruginosa PAO1. A wild-type (MB5919) and an isogenic strain in which multiple efflux pumps have been disrupted genetically were used. The MBL IMP-1, obtained from a clinical isolate was introduced into the strain pair by the following process:
(§3) Plasmid DNA (encoding IMP-1) was extracted from CL 5673 (IMP-1, P. aeruginosa clinical strain) by standard techniques. The plasmid DNA was transformed into parental MB5919 (oprD+, efflux+, inducible AmpC) and MB5890 (oprD+, efflux−, inducible AmpC) isogenic strains by electroporation. These transformed strains were plated onto cation-adjusted Muller-Hinton agar plates containing ceftazidime at 32 μg/mL (MB5919) and 16 μg/mL (MB5890) to select for those cells in which the IMP-1-expressing plasmid was introduced successfully, resulting in resistance to ceftazidime. Agarose-gel electrophoresis of PCR product for IMP-1 from the successful transformants was used to compare to control and to the original strain from which the plasmid was obtained, confirming transfer of the IMP-1 gene (data not shown).
(§4) The strain set was then used as a pair to determine the effect of metallo-β-lactamase inhibitors of Formula Ion the MIC of imipenem and/or ceftazidime. A fixed concentration of antibiotic is included in standard microbroth MIC tests, usually at the CLSI breakpoint concentration. A fixed amount of a class A/C beta-lactamase inhibitor is also included to inhibit the resident Pseudomonas AmpC enzyme. A serial titration of the metallo-β-lactamase inhibitor was included and the concentration of metallo-β-lactamase inhibitor which restores susceptibility of the strain to the included antibiotic was recorded. That concentration of metallo-β-lactamase inhibitor was then compared between the two strains to determine the fold difference between the efflux+(MB9798) and efflux−(MB9799) strains, which indicates n the extent to which the MBLi is subject to efflux.

[2] = test system: P. aeruginosa MB9799 (efflux mutant, IMP-1); assay: Efflux: concentration of MBL inhibitor restoring susceptibility to imipenem (MITC95), efflux− strain; assay type: cell-based, Pseudomonas aeruginosa; conditions: imipenem at 2 μg/mL in the presence of a class A, C, D serine β-lactamase inhibitor closely related to relebactam
Source text: as §2, §3, §4

[3] = test system: Klebsiella pneumoniae expressing VIM-1 (IHMA599644); assay: Antibiotic potentiation activity: synergistic concentration (MITC95) with imipenem; assay type: cell-based; conditions: imipenem 1 μg/mL; lowest concentration inhibiting 95% of growth; 35° C., 22-24 hours
Description: (§5) The bacterial strains tested included the clinical strains Escherichia coli expressing NDM-1 (CLB30005, CLB30016), Serratia marcescens expressing IMP-1 (CL5741), and Klebsiella pneumoniae expressing VIM-1 (IHMA599644). Inhibitor activity was measured in the presence and absence of imipenem in a 384-well microplate.
(§6) The clinical strains CLB30016, CL5741 and IHMA599644 were grown on trypticase soy agar containing 5% sheep's blood. The bacteria on agar plates were incubated at 35° C. with humidity overnight. The following day, individual colonies from each clinical strain were picked and resuspended in 5 mL saline to attain an OD600 of 0.14, 0.11, 0.15 and 0.13, for CLB30016, CL5741 and IHMA599644, respectively. These were further diluted 1:100 into 1.1× CAMHB and used to inoculate the test wells as described below.
(§7) Imipenem in 10 mM 3-(N-morpholino)propanesulfonic acid (MOPS, pH 7) was stored in single use aliquots at −80° C. […] On the day of the assay, 4 μl of antibiotic was added to 45 μl of bacteria followed by 1 μl of test compound and mixed by pipetting and with an orbital shaker. The concentration of antibiotic used in the assay was 1 μg/mL. Microplates were covered and incubated at 35° C. for 22 hours to 24 hours. At the end of the incubation, absorbance was determined using a spectrophotometer. The synergistic concentration of MBLI was determined by identifying the lowest concentration of test compound in the presence of a given concentration of antibiotic that was required to inhibit 95% of the growth of the bacteria. The results for Examples 1-209 are reported in Table 1, expressed as the concentration of compound that potentiated the action of antibiotic (imipenem) affecting 95% inhibition of bacterial growth (MITC95).

[4] = test system: Serratia marcescens expressing IMP-1 (CL5741); assay: as above; assay type: cell-based; conditions: imipenem 1 μg/mL; lowest concentration inhibiting 95% of growth; 35° C., 22-24 hours
Description: as §5, §6, §7

[5] = test system: Escherichia coli expressing NDM-1 (CLB30016); assay: as above; assay type: cell-based; conditions: imipenem 1 μg/mL; lowest concentration inhibiting 95% of growth; 35° C., 22-24 hours
Description: as §5, §6, §7

IMP-1 = IMP-1 (Serratia marcescens, UniProt P52699); assay: Enzyme activity: determination of IC50, fluorescence assay with CCF2-FA substrate (IMP-1); assay type: biochemical; conditions: 2 pM enzyme, 1.25 μM CCF2-FA, 2 hours at 25° C.; read-out: IMP1 IC50
Description: as §1

VIM-2 = VIM-2 (Escherichia coli, UniProt Q5U7L7); assay: Enzyme activity: determination of IC50 (VIM-2); assay type: biochemical; conditions: read-out: VIM2 IC50
VIM-1 = VIM-1 (Pseudomonas aeruginosa, UniProt A0A0F7KYQ8); assay: Enzyme activity: determination of IC50, fluorescence assay with CCF2-FA substrate (VIM-1); assay type: biochemical; conditions: 30 pM enzyme, 1.25 μM CCF2-FA, 2 hours at 25° C.; read-out: VIM1 IC50
Description: as §1

Sequence of NDM-1 (C7C422 29-270, looked up, species assumed): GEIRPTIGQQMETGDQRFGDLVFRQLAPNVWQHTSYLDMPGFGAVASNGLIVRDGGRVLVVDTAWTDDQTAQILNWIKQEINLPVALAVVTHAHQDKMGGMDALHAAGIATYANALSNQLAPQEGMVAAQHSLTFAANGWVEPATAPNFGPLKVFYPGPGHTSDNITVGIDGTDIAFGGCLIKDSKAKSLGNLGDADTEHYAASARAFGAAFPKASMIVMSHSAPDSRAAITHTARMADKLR
Sequence of IMP-1 (P52699 19-246, looked up, species assumed): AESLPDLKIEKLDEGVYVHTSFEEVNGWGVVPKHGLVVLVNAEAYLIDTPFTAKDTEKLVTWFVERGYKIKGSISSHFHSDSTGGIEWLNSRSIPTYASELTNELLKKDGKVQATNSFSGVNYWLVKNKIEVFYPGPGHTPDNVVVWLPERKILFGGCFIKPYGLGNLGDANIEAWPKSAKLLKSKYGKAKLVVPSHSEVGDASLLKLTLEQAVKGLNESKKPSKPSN

## NS(=O)(=O)c1c(S(=O)(=O)N[C@@H]2CCNC2)ccc(N2CCn3ncnc3C2)c1-c1nn[nH]n1 [Example 1, (R)-4-(5,6-dihydro-[1,2,4]triazolo[1,5-a]pyrazin-7(8H)-yl)-N′-(pyrrolidin-3-yl)-3-(2H-tetrazol-5-yl)benzene-1,2-disulfonamide]
NDM-1
  IC50: 1.57 nM
[1]
  MB9798 MITC95 P. aeruginosa Efflux WT: 6.25 µM
[2]
  MB9799 MITC95 P. aeruginosa Efflux Mutant: 1.56 µM
[3]
  IHMA599644 K.pneumoniae MITC95 uM VIM: 6.25 µM
[4]
  CL5741 S.marcescens MITC95 uM IMP: 1.56 µM
[5]
  CLB30016 E.coli MITC95 NDM: 3.13 µM
IMP-1
  IC50: 4.03 nM
VIM-2
  IC50: 0.99 nM
VIM-1
  IC50: 0.29 nM

## NS(=O)(=O)c1c(S(=O)(=O)N[C@@H]2CCNC2)ccc(N2CCn3cncc3C2)c1-c1nn[nH]n1 [Example 2, (R)-4-(5,6-dihydroimidazo[1,5-a]pyrazin-7(8H)-yl)-N^1-(pyrrolidin-3-yl)-3-(2H-tetrazol-5-yl)benzene-1,2-disulfonamide]
NDM-1
  IC50: 0.3 nM
[1]
  MB9798 MITC95 P. aeruginosa Efflux WT: 3.13 µM
[2]
  MB9799 MITC95 P. aeruginosa Efflux Mutant: 0.78 µM
[3]
  IHMA599644 K.pneumoniae MITC95 uM VIM: 1.56 µM
[4]
  CL5741 S.marcescens MITC95 uM IMP: 0.78 µM
[5]
  CLB30016 E.coli MITC95 NDM: 0.20 µM
IMP-1
  IC50: 2.01 nM
VIM-2
  IC50: 0.68 nM
VIM-1
  IC50: 0.16 nM

## NC[C@@H](O)CNS(=O)(=O)c1ccc(N2CCc3nc(N)[nH]c3C2)c(-c2nn[nH]n2)c1S(N)(=O)=O [Example 3, (R)—N^1-(3-amino-2-hydroxypropyl)-4-(2-amino-3,4,6,7-tetrahydro-5H-imidazo[4,5-c]pyridin-5-yl)-3-(2H-tetrazol-5-yl)benzene-1,2-disulfonamide]
NDM-1
  IC50: 2.23 nM
[1]
  MB9798 MITC95 P. aeruginosa Efflux WT: 6.25 µM
[2]
  MB9799 MITC95 P. aeruginosa Efflux Mutant: 1.56 µM
[3]
  IHMA599644 K.pneumoniae MITC95 uM VIM: 6.25 µM
[4]
  CL5741 S.marcescens MITC95 uM IMP: 3.13 µM
[5]
  CLB30016 E.coli MITC95 NDM: 0.78 µM
IMP-1
  IC50: 5.72 nM
VIM-2
  IC50: 72.8 nM
VIM-1
  IC50: 22.6 nM

## NS(=O)(=O)c1c(S(=O)(=O)N[C@@H]2CCNC2)ccc(N2CCn3nc(C(F)(F)F)nc3C2)c1-c1nn[nH]n1 [Example 4, (R)—N^1-(pyrrolidin-3-yl)-3-(2H-tetrazol-5-yl)-4-(2-(trifluoromethyl)-5,6-dihydro-[1,2,4]triazolo[1,5-a]pyrazin-7(8H)-yl)benzene-1,2-disulfonamide]
NDM-1
  IC50: 2.25 nM
[1]
  MB9798 MITC95 P. aeruginosa Efflux WT: 25.00 µM
[2]
  MB9799 MITC95 P. aeruginosa Efflux Mutant: 3.13 µM
[3]
  IHMA599644 K.pneumoniae MITC95 uM VIM: 6.25 µM
[4]
  CL5741 S.marcescens MITC95 uM IMP: 6.25 µM
[5]
  CLB30016 E.coli MITC95 NDM: 3.13 µM
IMP-1
  IC50: 2.18 nM
VIM-2
  IC50: 0.48 nM
VIM-1
  IC50: 0.35 nM

## CCOC(=O)c1cn2c(n1)N(c1ccc(S(=O)(=O)N[C@@H]3CCNC3)c(S(N)(=O)=O)c1-c1nn[nH]n1)CCC2 [Example 5, ethyl (R)-8-(4-(N-(pyrrolidin-3-yl)sulfamoyl)-3-sulfamoyl-2-(2H-tetrazol-5-yl)phenyl)-5,6,7,8-tetrahydroimidazo[1,2-a]pyrimidine-2-carboxylate]
NDM-1
  IC50: 0.04 nM
[1]
  MB9798 MITC95 P. aeruginosa Efflux WT: 6.25 µM
[2]
  MB9799 MITC95 P. aeruginosa Efflux Mutant: 3.13 µM
[3]
  IHMA599644 K.pneumoniae MITC95 uM VIM: 12.50 µM
[4]
  CL5741 S.marcescens MITC95 uM IMP: 6.25 µM
[5]
  CLB30016 E.coli MITC95 NDM: 12.50 µM
IMP-1
  IC50: 0.96 nM
VIM-2
  IC50: 0.55 nM
VIM-1
  IC50: 0.12 nM

## NS(=O)(=O)c1c(S(=O)(=O)N[C@@H]2CCNC2)ccc(N2CCCn3cnnc32)c1-c1nn[nH]n1 [Example 6, (R)-4-(6,7-dihydro-[1,2,4]triazolo[4,3-a]pyrimidin-8(5H)-yl)-N^1-(pyrrolidin-3-yl)-3-(2H-tetrazol-5-yl)benzene-1,2-disulfonamide]
NDM-1
  IC50: 0.72 nM
[1]
  MB9798 MITC95 P. aeruginosa Efflux WT: 3.13 µM
[2]
  MB9799 MITC95 P. aeruginosa Efflux Mutant: 3.13 µM
[3]
  IHMA599644 K.pneumoniae MITC95 uM VIM: 6.25 µM
[4]
  CL5741 S.marcescens MITC95 uM IMP: 3.13 µM
[5]
  CLB30016 E.coli MITC95 NDM: 0.78 µM
IMP-1
  IC50: 6.8 nM
VIM-2
  IC50: 1.13 nM
VIM-1
  IC50: 0.24 nM

## NS(=O)(=O)c1c(S(=O)(=O)N[C@@H]2CCNC2)ccc(N2CCCn3nccc32)c1-c1nn[nH]n1 [Example 7, (R)-4-(6,7-dihydropyrazolo[1,5-a]pyrimidin-4(5H)-yl)-N^1-(pyrrolidin-3-yl)-3-(2H-tetrazol-5-yl)benzene-1,2-disulfonamide]
NDM-1
  IC50: 0.14 nM
[1]
  MB9798 MITC95 P. aeruginosa Efflux WT: 3.13 µM
[2]
  MB9799 MITC95 P. aeruginosa Efflux Mutant: 1.56 µM
[3]
  IHMA599644 K.pneumoniae MITC95 uM VIM: 6.25 µM
[4]
  CL5741 S.marcescens MITC95 uM IMP: 3.13 µM
[5]
  CLB30016 E.coli MITC95 NDM: 6.25 µM
IMP-1
  IC50: 2.81 nM
VIM-2
  IC50: 0.66 nM
VIM-1
  IC50: 0.13 nM
